Results reported in patent publication US12509452B2, “Substituted-isoxazoline-containing aromatic compound, preparation method therefor, herbicidal composition and use thereof” (QINGDAO KINGAGROOT CHEMICAL COMPOUND CO., LTD., priority 2019, dated 2025).

How the values were obtained:
Experiment in all cases: weeding effect in post-emergence stage
Type in all cases: in vivo
Conditions in all cases: dose 15 g a.i./ha
Alopecurus japonicus = test system: Alopecurus japonicus
How it was run: (§1)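 Post-emergence greenhouse pot test: 2-3 leaf weeds sprayed (acetone/Tween 80 formulation plus 1.5 liter/ha methyl oleate EC) at 500, 250, 125, 60, 15, 7.5 g a.i./ha; fresh weight control rate read 3 weeks later, graded 0 (<5%) to 5 (>85%); n=3 averages.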

Beckmannia syzigachne = test system: Beckmannia syzigachne
How it was run: as §1

Conyza japonica = test system: Conyza japonica
How it was run: as §1

Rorippa indica = test system: Rorippa indica
How it was run: as §1

Row | Structure (SMILES) | weeding effect in post-emergence stage, Alopecurus japonicus (activity level) (Alopecurus japonicus) | weeding effect in post-emergence stage, Beckmannia syzigachne (activity level) (Beckmannia syzigachne) | weeding effect in post-emergence stage, Conyza japonica (activity level) (Conyza japonica) | weeding effect in post-emergence stage, Rorippa indica (activity level) (Rorippa indica)
1 | CCOC(=O)C1(C)CC(c2cc(-n3c(=O)n(C)c(=S)n(C)c3=O)c(Cl)cc2Cl)=NO1 (centres unmarked) [Compound 1-61] | 5 (Level 5: growth control rate is above 85%) | 5 (Level 5: growth control rate is above 85%) | 5 (Level 5: growth control rate is above 85%) | 5 (Level 5: growth control rate is above 85%)
2 | CCOC(=O)[C@]1(C)CC(c2cc(-n3c(=O)n(C)c(=S)n(C)c3=O)c(F)cc2Cl)=NO1 [Compound 1-62] | 5 (Level 5: growth control rate is above 85%) | 5 (Level 5: growth control rate is above 85%) | 5 (Level 5: growth control rate is above 85%) | 5 (Level 5: growth control rate is above 85%)
3 | CCOC(=O)C1(C)CC(c2cc(-n3c(=O)n(CC)c(=S)n(CC)c3=O)c(F)cc2Cl)=NO1 (centres unmarked) [Compound 1-64] | 5 (Level 5: growth control rate is above 85%) | 5 (Level 5: growth control rate is above 85%) | 5 (Level 5: growth control rate is above 85%) | 5 (Level 5: growth control rate is above 85%)
4 | CCOC(=O)C1(C)CC(c2cc(-n3c(=O)n(C(C)C)c(=S)n(C(C)C)c3=O)c(F)cc2Cl)=NO1 (centres unmarked) [Compound 1-65] | 5 (Level 5: growth control rate is above 85%) | 5 (Level 5: growth control rate is above 85%) | 5 (Level 5: growth control rate is above 85%) | 5 (Level 5: growth control rate is above 85%)
5 | CCOC(=O)C1(C)CC(c2cc(-n3c(=O)n(C4CC4)c(=S)n(C4CC4)c3=O)c(F)cc2Cl)=NO1 (centres unmarked) [Compound 1-66] | 5 (Level 5: growth control rate is above 85%) | 5 (Level 5: growth control rate is above 85%) | 5 (Level 5: growth control rate is above 85%) | 5 (Level 5: growth control rate is above 85%)
6 | CCOC(=O)C1(C)CC(c2cc(-n3c(=O)n(C)c(=S)n(C)c3=O)c(F)cc2C(F)(F)F)=NO1 (centres unmarked) [Compound 1-67] | 5 (Level 5: growth control rate is above 85%) | 5 (Level 5: growth control rate is above 85%) | 5 (Level 5: growth control rate is above 85%) | 5 (Level 5: growth control rate is above 85%)
7 | CCOC(=O)C1(C)CC(c2cc(-n3c(=O)n(C)c(=S)n(C)c3=O)c(F)cc2C#N)=NO1 (centres unmarked) [Compound 1-69] | 5 (Level 5: growth control rate is above 85%) | 5 (Level 5: growth control rate is above 85%) | 5 (Level 5: growth control rate is above 85%) | 5 (Level 5: growth control rate is above 85%)
8 | CCCOC(=O)C1(C)CC(c2cc(-n3c(=O)n(C)c(=S)n(C)c3=O)c(F)cc2Cl)=NO1 (centres unmarked) [Compound 1-70] | 5 (Level 5: growth control rate is above 85%) | 5 (Level 5: growth control rate is above 85%) | 5 (Level 5: growth control rate is above 85%) | 5 (Level 5: growth control rate is above 85%)
9 | CC(C)OC(=O)C1(C)CC(c2cc(-n3c(=O)n(C)c(=S)n(C)c3=O)c(F)cc2Cl)=NO1 (centres unmarked) [Compound 1-71] | 5 (Level 5: growth control rate is above 85%) | 5 (Level 5: growth control rate is above 85%) | 5 (Level 5: growth control rate is above 85%) | 5 (Level 5: growth control rate is above 85%)
10 | CCCCOC(=O)C1(C)CC(c2cc(-n3c(=O)n(C)c(=S)n(C)c3=O)c(F)cc2Cl)=NO1 (centres unmarked) [Compound 1-72] | 5 (Level 5: growth control rate is above 85%) | 5 (Level 5: growth control rate is above 85%) | 5 (Level 5: growth control rate is above 85%) | 5 (Level 5: growth control rate is above 85%)
11 | CC(C)COC(=O)C1(C)CC(c2cc(-n3c(=O)n(C)c(=S)n(C)c3=O)c(F)cc2Cl)=NO1 (centres unmarked) [Compound 1-73] | 5 (Level 5: growth control rate is above 85%) | 5 (Level 5: growth control rate is above 85%) | 5 (Level 5: growth control rate is above 85%) | 5 (Level 5: growth control rate is above 85%)
12 | Cn1c(=S)n(C)c(=O)n(-c2cc(C3=NOC(C)(C(=O)OC(C)(C)C)C3)c(Cl)cc2F)c1=O (centres unmarked) [Compound 1-74] | 5 (Level 5: growth control rate is above 85%) | 5 (Level 5: growth control rate is above 85%) | 5 (Level 5: growth control rate is above 85%) | 5 (Level 5: growth control rate is above 85%)
13 | CCCCCCC(C)OC(=O)C1(C)CC(c2cc(-n3c(=O)n(C)c(=S)n(C)c3=O)c(F)cc2Cl)=NO1 (centres unmarked) [Compound 1-75] | 5 (Level 5: growth control rate is above 85%) | 5 (Level 5: growth control rate is above 85%) | 5 (Level 5: growth control rate is above 85%) | 5 (Level 5: growth control rate is above 85%)
14 | C=CCOC(=O)C1(C)CC(c2cc(-n3c(=O)n(C)c(=S)n(C)c3=O)c(F)cc2Cl)=NO1 (centres unmarked) [Compound 1-76] | 5 (Level 5: growth control rate is above 85%) | 5 (Level 5: growth control rate is above 85%) | 5 (Level 5: growth control rate is above 85%) | 5 (Level 5: growth control rate is above 85%)
15 | C#CCOC(=O)C1(C)CC(c2cc(-n3c(=O)n(C)c(=S)n(C)c3=O)c(F)cc2Cl)=NO1 (centres unmarked) [Compound 1-79] | 5 (Level 5: growth control rate is above 85%) | 5 (Level 5: growth control rate is above 85%) | 5 (Level 5: growth control rate is above 85%) | 5 (Level 5: growth control rate is above 85%)
16 | CC#CCOC(=O)C1(C)CC(c2cc(-n3c(=O)n(C)c(=S)n(C)c3=O)c(F)cc2Cl)=NO1 (centres unmarked) [Compound 1-80] | 5 (Level 5: growth control rate is above 85%) | 5 (Level 5: growth control rate is above 85%) | 5 (Level 5: growth control rate is above 85%) | 5 (Level 5: growth control rate is above 85%)
17 | C#CCCOC(=O)C1(C)CC(c2cc(-n3c(=O)n(C)c(=S)n(C)c3=O)c(F)cc2Cl)=NO1 (centres unmarked) [Compound 1-81] | 5 (Level 5: growth control rate is above 85%) | 5 (Level 5: growth control rate is above 85%) | 5 (Level 5: growth control rate is above 85%) | 5 (Level 5: growth control rate is above 85%)
18 | C#CC(C)OC(=O)C1(C)CC(c2cc(-n3c(=O)n(C)c(=S)n(C)c3=O)c(F)cc2Cl)=NO1 (centres unmarked) [Compound 1-82] | 5 (Level 5: growth control rate is above 85%) | 5 (Level 5: growth control rate is above 85%) | 5 (Level 5: growth control rate is above 85%) | 5 (Level 5: growth control rate is above 85%)
19 | Cn1c(=S)n(C)c(=O)n(-c2cc(C3=NOC(C)(C(=O)OC4CC4)C3)c(Cl)cc2F)c1=O (centres unmarked) [Compound 1-83] | 5 (Level 5: growth control rate is above 85%) | 5 (Level 5: growth control rate is above 85%) | 5 (Level 5: growth control rate is above 85%) | 5 (Level 5: growth control rate is above 85%)
20 | Cn1c(=S)n(C)c(=O)n(-c2cc(C3=NOC(C)(C(=O)OCC4CC4)C3)c(Cl)cc2F)c1=O (centres unmarked) [Compound 1-84] | 5 (Level 5: growth control rate is above 85%) | 5 (Level 5: growth control rate is above 85%) | 5 (Level 5: growth control rate is above 85%) | 5 (Level 5: growth control rate is above 85%)
